In assay [1] the test system is colorectal (HCT116 and SW620) cell line models. The assay is described as follows: MTS growth inhibition assay. Format: cell-based. To be noted: increasing concentrations of 5-FU between 0 and 100 μmol/L; both colorectal cancer cell lines (HCT116, SW620). The procedure: The Cell Titer AQueous MTS assay (Promega) is carried out according to the manufacturers guidelines. […] The combination effect is determined by the combination index (CI) method utilizing Calcusyn software (Biosoft, Ferguson, Mo.). […] CI values <1, synergism; 1-1.2, additive and >1.2, antagonism.
Test compounds are evaluated for their antitumor activity in colorectal cancer cells using the MTS growth inhibition assay. HCT116 and SW620 cells are exposed to increasing concentrations of each agent for 72 hours and growth inhibition is directly compared to vehicle-treated controls. The NSCLC cell lines A549 and H1299 are exposed to increasing concentrations of each agent for 72 hours and growth inhibition is directly compared to vehicle-treated controls.
Simultaneous treatment with increasing concentrations of 5-FU and a test compound at fixed concentrations of 25 μmol/L is determined.
For orientation: Tetrazolium dyes change colour on reduction, which living cells bring about.

Assay [2] concerns colorectal (HCT116), breast (MCF-7) and non-small cell lung (H1299, A549, H358 and H460) cell line models. Description: Colony forming assay. It is filed as cell-based. The note with it: increasing concentrations of FUdR between 0.5 and 2.5 μmol/L; all cell lines evaluated. The procedure:
Colony forming assay showing the ability of colon (SW620, HCT116), non-small cell lung (A549, H460, H1299 and H358) and breast (MCF7) cancer cells to survive and proliferate following transient 24 hour exposure to test compounds, FUdR and combinations are determined. Specifically, cells are seeded at densities between 50 and 100 cells/well in 24-well plates. […] After 24 hours, drug is removed, cells are rinsed and allowed to outgrow for 10-14 days. At the conclusion of the outgrowth, cells are fixed in 60% ice cold methanol and stained with 0.1% crystal violet, scanned and counted. Data is presented as percentage of untreated controls (mean±SD). Fraction affected and combination indexes are calculated according to the method of Chou and Talalay where <1 is indicative of a synergistic drug interaction.
Colony forming assays are performed to evaluate the effectiveness of test compounds alone and in combination with the fluoropyrimidine thymidylate synthase (TS) inhibitor fluorodeoxyuridine (FUdR) at reducing cancer cell viability in colorectal (HCT116), breast (MCF-7) and non-small cell lung (H1299, A549, H358 and H460) cell line models.

With `O=c1[nH]cc(F)c(=O)[nH]1` [5-FU, 5-fluorouracil], the growth inhibition entry in assay [1] was “dose-dependent increases in growth inhibition”. On to `O=c1[nH]c(=O)n([C@H]2C[C@H](O)[C@@H](CO)O2)cc1F` [FUdR, fluorodeoxyuridine], for which, in assay [2], the colonies formed entry is “dose-dependent decreases in colonies formed”.

(Values after patent US11479531B2, “Deoxyuridine triphosphatase inhibitors” (University of Southern California, priority 2015, dated 2022).)
